This experiment has as its system Male CF1 mice. As to the kind of experiment: Mouse antiphenylquinone writhing (PQW) test. Format: in vivo. Also on record: Mouse PQW ED50 (mg/kg): unit not given here. The settings on record: for Mouse PQW ED50 (mg/kg): Table 4, 3° carbinols within the scope of U.S. 4,485,109, head prints neither endpoint nor unit; for ED50: Mus musculus, 0.5 h, phenylquinone 1.25 mg/kg i.p., observation beginning 30 min after injection of test compound; for ED50 / Mouse PQW remark: Table 3; for Mouse PQW remark: remark beside S.C and P.O values. As to the method:
The anti-pheylquinone writhing (PQW) test modified from the methods of Siegmund et al. (Proc. Soc. Exp. Biol. Med. 95: 729-731, 1957) and Blumberg et al. (Proc. Exp. Biol. Med. 118: 763-767, 1965) was used to assess analgesia in mice. Male CF1 mice (Charles River Breeding Laboratories, Wilmington, MA), fasted for 16-22 h and weighing 18-23 g, were injected with randomized and coded doses of test compounds, then challenged with 1.25 mg/kg i.p. phenyl-p-benzoquinone (phenylquinone) 5 min prior to the specified observation time. The phenylquinone solution (0.1 mg/ml in 5% aqueous ethanol) was prepared daily and stored in foil-wrapped amber bottles to limit degradation. Mice were observed 10 min for the presence or absence of the characteristic abdominal constriction and stretching response beginning 30 min after injection of the test compound. Analgetic activity was calculated as the percentage of mice failing to respond to the phenylquinone challenge dose. […] Median effective doses (ED50's) and 95% confidence limits were determined numerically by the methods of Thompson (Bacteriological Rev. 11: 115-145, 1947), and Litchfield and Wilcoxon (J. Pharmacol. Exp. Ther. 96: 99.113, 1949).
The data shown in Table show the PQW ED₅₀ values for the compounds of the aforesaid examples.
Table 4 illustrates that the 3° carbinols within the scope of U.S. 4,485,109 have utility as analgesic agents.

The mark [1] stands for this setting: po, p.o., read-out: Mouse PQW ED₅₀ (Mg/Kg) P.O.
Where [2] appears, read: sc, s.c., read-out: Mouse PQW ED₅₀ (Mg/Kg) S.C.

Where two headings read alike, the source gives them in different places.

As to `CN1CCC(c2cccc(O)c2)(C(C)(C)O)CC1` [AA], the “Mouse PQW ED50 (mg/kg)” value by setting is: (p.o.) >81.0; (s.c.) 62.0.

With `COc1cccc(C2(C(C)(C)O)CCN(C)CC2)c1` [BB], the “Mouse PQW ED50 (mg/kg)” value worked out at 19.0 (p.o.) and 12.0 (s.c.).

In the case of `CCC(C)(O)C1(c2cccc(OC)c2)CCN(C)CC1` (centres unmarked) [CC], the “Mouse PQW ED50 (mg/kg)” value was 68.0 (p.o.) and 23.0 (s.c.).

Regarding `CCC(O)(CC)C1(c2cccc(OC)c2)CCN(C)CC1` [DD], the “Mouse PQW ED50 (mg/kg)” value (p.o.) turned out to be 12.0.

Regarding `COc1cccc(C2(C3(O)CCC3)CCN(C)CC2)c1` [EE], the “Mouse PQW ED50 (mg/kg)” value by setting is: (p.o.) >54.0; (s.c.) 22.0.

For the compound `CN1CCC(c2cccc(Cl)c2)(C(C)(C)O)CC1` [Example 1a, 4-(3'-Chlorophenyl)-α,α,1-trimethyl-4-piperidinemethanol], the ED50 is, setting by setting: under setting [1], 10 mg/kg; under setting [2], 16.1 mg/kg.

For `CCN1CCC(c2cccc(Cl)c2)(C(C)O)CC1` (stereo not drawn) [Example 2, 4-(3'-Chlorophenyl)-1-ethyl-α-methyl-4-piperidinemethanol], the ED50 was > 81 mg/kg under setting [1] and 62 mg/kg under setting [2].

In the case of `CC(O)C1(c2ccccc2F)CCN(C)CC1` (centres unmarked) [Example 4], the “Mouse PQW remark” value is listed as “Inactive”. Besides, the ED50 under setting [1] was > 81 mg/kg. Further, the ED50 under setting [2] is > 81 mg/kg.

Regarding `CC(O)C1(c2cccc(F)c2)CCN(C)CC1` (centres unmarked) [Example 5], the ED50 runs as follows: under setting [1], > 81 mg/kg; under setting [2], 24 mg/kg.

On to `CC(O)C1(c2ccc(F)cc2)CCN(C)CC1` (centres unmarked) [Example 6], for which the ED50 is, setting by setting: under setting [1], > 81 mg/kg; under setting [2], 54 mg/kg.

As for `CC(O)C1(c2ccc(F)c(F)c2)CCN(C)CC1` (centres unmarked) [Example 7], the ED50 under setting [1] is > 81 mg/kg and the ED50 under setting [2] is 38 mg/kg.

`CC(O)C1(c2ccc(Cl)cc2)CCN(C)CC1` (centres unmarked) [Example 8]: the ED50 was > 81 mg/kg under setting [1] and 30 mg/kg under setting [2].

For the compound `CC(O)C1(c2ccc(Cl)c(Cl)c2)CCN(C)CC1` (centres unmarked) [Example 9], the ED50 is 32 mg/kg under setting [1] and > 81 mg/kg under setting [2].

For `CC(O)C1(c2cccc(Br)c2)CCN(C)CC1` (stereo not drawn) [Example 10, 4-(3'-Bromophenyl)-α,1-dimethylpiperidinemethanol], the ED50 worked out at 16 mg/kg under setting [1] and 6.5 mg/kg under setting [2].

Consider `CC(O)C1(c2ccc(Br)cc2)CCN(C)CC1` (centres unmarked) [Example 11], for which the “Mouse PQW remark” value is “Inactive”. Besides, the ED50 under setting [1] is > 81 mg/kg. Under setting [2], the ED50 is > 81 mg/kg.

Consider `Cc1cccc(C2(C(C)O)CCN(C)CC2)c1` (centres unmarked) [Example 13], for which the ED50 turned out to be 47 mg/kg under setting [1] and 4.7 mg/kg under setting [2].

In the case of `Cc1ccc(C2(C(C)O)CCN(C)CC2)cc1` (centres unmarked) [Example 14], the ED50 is, setting by setting: under setting [1], > 81 mg/kg; under setting [2], 54 mg/kg.

Take `CC(O)C1(c2cccc(C(F)(F)F)c2)CCN(C)CC1` (centres unmarked) [Example 15]: the ED50 under setting [1] stood at 30 mg/kg and the ED50 under setting [2] was 19 mg/kg.

As for `CC(O)C1(c2ccc3ccccc3c2)CCN(C)CC1` (centres unmarked) [Example 25], the ED50 reads like this: under setting [1], > 81 mg/kg; under setting [2], 16 mg/kg.

Regarding `CC(O)C1(c2cccs2)CCN(C)CC1` (stereo not drawn) [Example 26, 4-(2-Thienyl)-α,1-dimethylpiperidinemethanol], the ED50 is 19 mg/kg under setting [1] and 13 mg/kg under setting [2].

With `CC(O)C1(c2ccsc2)CCN(C)CC1` (stereo not drawn) [Example 27, 4-(3-Thienyl)-α,1-dimethylpiperidinemethanol], the ED50 runs as follows: under setting [1], 16 mg/kg; under setting [2], 13 mg/kg.

Consider `CC(O)C1(c2csc3ccccc23)CCN(C)CC1` (centres unmarked) [Example 29], for which the ED50 runs as follows: under setting [1], 47 mg/kg; under setting [2], 6.8 mg/kg.

Take `CCCN1CCC(c2cccc(Cl)c2)(C(C)O)CC1` (centres unmarked) [Example 34]: the ED50 runs as follows: under setting [1], > 81 mg/kg; under setting [2], 38 mg/kg.

`CCC(O)C1(c2cccc(Cl)c2)CCN(C)CC1` (centres unmarked) [Example 35]: the ED50 is, setting by setting: under setting [1], 30 mg/kg; under setting [2], 16 mg/kg.

As to `CCCC(O)C1(c2cccc(Cl)c2)CCN(C)CC1` (centres unmarked) [Example 36], the ED50 is, setting by setting: under setting [1], > 81 mg/kg; under setting [2], 67 mg/kg.

Consider `CCCCC(O)C1(c2cccc(Cl)c2)CCN(C)CC1` (centres unmarked) [Example 37], for which the ED50 under setting [1] is > 81 mg/kg and the ED50 under setting [2] was found to be 48 mg/kg.

Turning to `CN1CCC(c2cccc(Br)c2)(C(C)(C)O)CC1` [Example 41, 4-(3'-Bromophenyl)-α,α,1-trimethyl-4-piperidinemethanol], the ED50 by setting is: under setting [1], 24 mg/kg; under setting [2], 19 mg/kg.

Turning to `C=CCN1CCC(c2cccc(Cl)c2)(C(C)(C)O)CC1` [Example 42, 1-allyl,4-(3'-chlorophenyl)-α,α dimethyl-4-piperidinemethanol], the ED50 is, setting by setting: under setting [1], 54 mg/kg; under setting [2], 27 mg/kg.

As for `CN1CCC(c2cccs2)(C(C)(C)O)CC1` [Example 43], the ED50 under setting [1] is 36 mg/kg and the ED50 under setting [2] amounted to 13 mg/kg.

As for `CN1CCC(c2ccsc2)(C(C)(C)O)CC1` [Example 44], the ED50 is, setting by setting: under setting [1], 24 mg/kg; under setting [2], 6.5 mg/kg.

On to `CN1CCC(c2csc3ccccc23)(C(C)(C)O)CC1` [Example 45], for which the ED50 under setting [1] is 54 mg/kg and the ED50 under setting [2] is 4.2 mg/kg.

For the compound `CN1CCC(c2ccccn2)(C(C)(C)O)CC1` [Example 46, reference compound], the “Mouse PQW remark” value is “Inactive”. In addition, the ED50 under setting [1] was > 81 mg/kg. Further, the ED50 under setting [2] is > 81 mg/kg.

Take `CN1CCC(c2cccc3ccccc23)(C(C)(C)O)CC1` [Example 50]: the ED50 under setting [1] came out at 67 mg/kg and the ED50 under setting [2] turned out to be 24 mg/kg.

For `CC(=O)OC(C)C1(c2cccc(Cl)c2)CCN(C)CC1` (stereo not drawn) [Example 66, 4-(3'-Chlorophenyl)-α,1-dimethyl-4-piperidinemethanol-Acetate], the ED50 is, setting by setting: under setting [1], 19 mg/kg; under setting [2], 13 mg/kg.

As to `CC(=O)OC(C)(C)C1(c2cccc(Cl)c2)CCN(C)CC1` [Example 67, 4-(3'-Chlorophenyl)-α,α,1-trimethyl-4-piperidinemethanol Acetate], the ED50 was 5.2 mg/kg under setting [1] and 1.8 mg/kg under setting [2].

On to `COC(C)C1(c2cccc(Cl)c2)CCN(C)CC1` (centres unmarked) [Example 68], for which the ED50 is, setting by setting: under setting [1], 19 mg/kg; under setting [2], 6.5 mg/kg.

Consider `CC(OCc1ccccc1)C1(c2cccc(Cl)c2)CCN(C)CC1` (centres unmarked) [Example 69], for which the ED50 under setting [1] is > 81 mg/kg and the ED50 under setting [2] was 62 mg/kg.

Consider `CN1CCC(c2cccc(Cl)c2)(C(C)(C)O)C1` (stereo not drawn) [Example 70, 3-(3'Chlorophenyl)-α,α,1-trimethyl-3-pyrrolidinemethanol], for which the ED50 amounted to 13 mg/kg under setting [1] and 10 mg/kg under setting [2].

Turning to `CC(O)C1(c2cccc(Cl)c2)CCCN(C)CC1` (stereo not drawn) [Example 71, 4-(3'-Chlorophenyl)-α,1-dimethyl-2,3,4,5,6,7-hexahydro-1H-azepine-4-methanol], the ED50 reads like this: under setting [1], 16 mg/kg; under setting [2], 8.1 mg/kg.

As for `COc1cccc(C2(C3(O)CCCC3)CCN(C)CC2)c1` [FF], the “Mouse PQW ED50 (mg/kg)” value worked out at 47.0 (p.o.) and 16.0 (s.c.).

As to `COc1cccc(C2(C3(O)CCCCC3)CCN(C)CC2)c1` [GG], for the setting “p.o.”, the “Mouse PQW ED50 (mg/kg)” value is on record as <108.0.

As to `CCOc1cccc(C2(C(C)(C)O)CCN(C)CC2)c1` [HH], the “Mouse PQW ED50 (mg/kg)” value was 32.0 (p.o.) and 9.0 (s.c.).

On to `CSc1ccc(C2(C(C)(C)O)CCN(C)CC2)cc1` [II], for which, where the note is “p.o.”, the “Mouse PQW ED50 (mg/kg)” value was 59.0.

As for `CN1CCC(c2ccc3ccccc3c2)(C(C)(C)O)CC1` [KK], the “Mouse PQW ED50 (mg/kg)” value by setting is: (p.o.) 47.0; (s.c.) 27.0.

Take `Cc1ccc(C2(C(C)(C)O)CCN(C)CC2)s1` [LL]: the “Mouse PQW ED50 (mg/kg)” value by setting is: (p.o.) 36.0; (s.c.) 9.0.

As to `Cc1cc(C)cc(C2(C(C)(C)O)CCN(C)CC2)c1` [U], the “Mouse PQW ED50 (mg/kg)” value is recorded as 47.0 (p.o.) and 4.5 (s.c.).

With `CCC(C)(O)C1(c2cccc(C(F)(F)F)c2)CCN(C)CC1` (centres unmarked) [V], the “Mouse PQW ED50 (mg/kg)” value (p.o.) is 23.0.

For `CN1CCC(c2cccc(C(F)(F)F)c2)(C2(O)CCCC2)CC1` [W], the “Mouse PQW ED50 (mg/kg)” value was determined as 12.0 (p.o.) and 16.0 (s.c.).

Regarding `CN1CCC(c2cccc(F)c2)(C(C)(C)O)CC1` [X], the “Mouse PQW ED50 (mg/kg)” value is, setting by setting: (p.o.) >81.0; (s.c.) 10.0.

As for `CC1CCC(O)(C2(c3cccc(C(F)(F)F)c3)CCN(C)CC2)C1` (centres unmarked) [Y], the “Mouse PQW ED50 (mg/kg)” value (p.o.) was 25.0.

(Values after patent publication EP0337167B1, “4-Aryl-4-piperidine (or pyrrolidine or hexahydroazepine) carbinols and heterocyclic analogs thereof” (THE DU PONT MERCK PHARMACEUTICAL COMPANY, priority 1988, dated 1989).)
